Source: US20240425517A1, “NOVEL COMPOUND FOR DEGRADATION OF TARGET PROTEIN OR POLYPEPTIDE BY POLYUBIQUITINATION” (PRAZER THERAPEUTICS INC., priority 2021, published 2024)

Target: T1, Aurora A proteins (Homo sapiens, UniProt O14965)
T1 construct: endogenous in cells; host or cells: MM.1S
T1 sequence (O14965 1-403): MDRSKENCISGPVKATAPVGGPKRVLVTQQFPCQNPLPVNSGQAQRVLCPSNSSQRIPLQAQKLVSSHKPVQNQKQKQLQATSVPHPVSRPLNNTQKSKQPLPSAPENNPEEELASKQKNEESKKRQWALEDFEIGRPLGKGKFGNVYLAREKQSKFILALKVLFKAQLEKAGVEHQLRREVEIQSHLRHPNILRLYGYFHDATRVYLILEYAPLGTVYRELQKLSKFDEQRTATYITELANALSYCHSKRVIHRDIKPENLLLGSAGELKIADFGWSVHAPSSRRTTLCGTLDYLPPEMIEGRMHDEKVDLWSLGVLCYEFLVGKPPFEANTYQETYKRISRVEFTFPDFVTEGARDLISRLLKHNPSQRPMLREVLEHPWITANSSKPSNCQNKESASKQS
Assay: Degradation of Aurora A protein in MM.1S cell lines (Western blot densitometry)
Assay type: cell-based
Settings: MM1.S, 24 h, read-out: Aurora A degrading capacity (%)
Method: Specifically, the MM.1S cells were cultured in RPMI-1640 medium containing 10% fetal bovine serum (FBS), 1% penicillin, and streptomycin (100 U/mL), transferred to a 6-well plate, and after 24 hours, the Aurora A degraders were diluted in the RPMI culture medium and cells were treated with 5 μM concentration thereof. After treatment, the cells were incubated in a CO2 incubator for 24 hours. […] After cell culture was completed according to the experimental conditions, the cells were collected and centrifuged at 1,800 rpm for 3 minutes. The cells in the precipitate were lysed with RIPA (25 mM Tris-HCl pH 7.6, 150 mM NaCl, 1% NP-40, 1% sodium deoxycholate, 0.1% SDS, 1× Protease Inhibitor Cocktail), 5× sample buffer was added, and then heated at 100° C. for 15 minutes. The prepared sample was electrophoresed with sodium dodecyl sulfate poly acrylamide gel electrophoresis (SDS-PAGE), and then the proteins in the gel were transferred to a PVDF membrane using Trans-Blot Turbo. The membrane was treated with a 5% bovine serum albumin (BSA) solution and blocked at room temperature for 2 hours, and then Aurora A and R-actin antibodies were diluted in the 5% BSA solution to react with the membrane at 4° C. overnight. After washed with PBST (0.5% Tween20) 5 times, horse radish peroxidase (HRP)-conjugated secondary antibodies were diluted in PBST to react at room temperature for 2 hours, and then washed again with a PBST solution 5 times. After enzyme-substrate reaction was carried out using a HRP substrate, a signal was measured with chemi-doc equipment, and the densitometry of a band corresponding to the Aurora A protein detected in the Preparation Example Compounds was quantitatively analyzed. The case when the degrading capacity of each Aurora A degrader was reduced by less than 40% is indicated as +, the case when the degrading capacity was reduced by 40% to 70% (exclusive of 70) is indicated as ++, the case when the degrading capacity was reduced by 70% or more is indicated as +++ in Tables 20 to 23 below.

| Compound | Aurora A degradation (%) at 5 µM |
| --- | --- |
| COC(=O)c1ccc(NC2CCC(NC(=O)c3ccc(Nc4ncc5c(n4)-c4ccc(Cl)cc4C(c4c(F)cccc4OC)=NC5)cc3OC)CC2)cc1C#CCN (stereo not shown) [5-35″, methyl 2-(3-aminoprop-1-yn-1-yl)-4-((4-(4-((9-chloro-7-(2-fluoro-6-methoxyphenyl)-5H-benzo[c]pyrimido[4,5-e]azepin-2-yl)amino)-2-methoxybenzamido)cyclohexyl)amino)benzoate trifluoroacetic acid] | > 70% |
| COC(=O)c1ccc(N2CC3(CN(C(=O)c4ccc(Nc5ncc6c(n5)-c5ccc(Cl)cc5C(c5c(F)cccc5OC)=NC6)cc4OC)C3)C2)cc1C#CCN [5-40″, methyl 2-(3-aminoprop-1-yn-1-yl)-4-(6-(4-((9-chloro-7-(2-fluoro-6-methoxyphenyl)-5H-benzo[c]pyrimido[4,5-e]azepin-2-yl)amino)-2-methoxybenzoyl)-2,6-diazaspiro[3.3]heptan-2-yl)benzoate trifluoroacetic acid] | > 70% |
| COc1cc(Nc2ncc3c(n2)-c2ccc(Cl)cc2C(c2c(F)cccc2OC)=NC3)ccc1C(=O)NCCCC(=O)Nc1ccc(-c2cnc(C(F)(F)F)nc2)c(C#CCN)c1 [5-81″, N-(4-((3-(3-aminoprop-1-yn-1-yl)-4-(2-(trifluoromethyl)pyrimidin-5-yl)phenyl)amino)-4-oxobutyl)-4-((9-chloro-7-(2-fluoro-6-methoxyphenyl)-5H-benzo[c]pyrimido[4,5-e]azepin-2-yl)amino)-2-methoxybenzamide trifluoroacetic acid] | > 70% |
| COc1cc(Nc2ncc3c(n2)-c2ccc(Cl)cc2C(c2c(F)cccc2OC)=NC3)ccc1C(=O)NCCCCCC(=O)Nc1cccc(C#CCN)c1 [5-104″, N-(6-((3-(3-aminoprop-1-yn-1-yl)phenyl)amino)-6-oxohexyl)-4-((9-chloro-7-(2-fluoro-6-methoxyphenyl)-5H-benzo[c]pyrimido[4,5-e]azepin-2-yl)amino)-2-methoxybenzamide trifluoroacetic acid] | > 70% |
| COC(=O)c1ccc(C#CCNC(=O)c2ccc(Nc3ncc4c(n3)-c3ccc(Cl)cc3C(c3c(F)cccc3OC)=NC4)cc2OC)cc1C#CCN [5-116″, methyl 2-(3-aminoprop-1-yn-1-yl)-4-(3-(4-((9-chloro-7-(2-fluoro-6-methoxyphenyl)-5H-benzo[c]pyrimido[4,5-e]azepin-2-yl)amino)-2-methoxybenzamido)prop-1-yn-1-yl)benzoate trifluoroacetic acid] | > 70% |
| COC(=O)c1ccc(N(C)C(=O)CCCNC(=O)c2ccc(Nc3ncc4c(n3)-c3ccc(Cl)cc3C(c3c(F)cccc3OC)=NC4)cc2OC)cc1C#CCN [5-150″, methyl 2-(3-aminoprop-1-yn-1-yl)-4-(4-(4-((9-chloro-7-(2-fluoro-6-methoxyphenyl)-5H-benzo[c]pyrimido[4,5-e]azepin-2-yl)amino)-2-methoxybenzamido)-N-methylbutanamido)benzoate trifluoroacetic acid] | < 40% |

Same assay, conditions: MM.1S cells, 5 μM, 24 hours, Western blot; control group

| Compound | Aurora A degrading capacity |
| --- | --- |
| COc1cc(Nc2ncc3c(n2)-c2ccc(Cl)cc2C(c2c(F)cccc2OC)=NC3)ccc1C(=O)O [Formula 2, reference compound] | 0% |

Target: T2, p38 proteins (Mus musculus, UniProt P47811)
T2 construct: endogenous in cells; host or cells: RAW 264.7
T2 sequence (P47811 whole entry): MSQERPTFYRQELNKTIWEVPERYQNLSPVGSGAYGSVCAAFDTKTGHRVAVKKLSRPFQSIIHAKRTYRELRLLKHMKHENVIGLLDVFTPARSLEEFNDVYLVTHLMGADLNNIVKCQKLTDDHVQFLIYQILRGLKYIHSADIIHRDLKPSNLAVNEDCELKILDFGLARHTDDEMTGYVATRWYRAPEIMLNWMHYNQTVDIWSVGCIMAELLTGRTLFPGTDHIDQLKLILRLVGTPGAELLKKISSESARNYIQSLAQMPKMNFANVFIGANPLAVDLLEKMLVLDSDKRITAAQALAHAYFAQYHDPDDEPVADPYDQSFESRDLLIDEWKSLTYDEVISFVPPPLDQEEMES
Assay: Degradation of p38 in Raw 264.7 macrophages (Western blot densitometry)
Assay type: cell-based
Settings: 10 μM, 24 hours
Method: To confirm that the compounds (p38 degraders) of Preparation Examples I″′ to III″′ reduce the amount of phospho-p38 (p-p38) proteins, experiments were performed using Raw 264.7 macrophages. Since p38 MAPK alpha is activated through the process of phosphorylation of threonine 180 (Thr180) and tyrosine 182 (Tyr182) residues by MKK3, MKK6, and the like, which are upstream regulators, phosphorylation of these residues was generally detected using an antibody (3D7 rabbit monoclonal antibody from Cell Signaling, Inc.) that specifically recognizes phospho-p38 (p-p38) MAPK in which p38 MAPK alpha was activated.
Specifically, the RAW 264.7 cells were cultured in DMEM medium containing 10% fetal bovine serum (FBS), 1% penicillin, and streptomycin (100 U/mL), transferred to a 6-well plate, and after 24 hours, the p38 degraders were diluted in the DMEM culture medium and the cells were treated with 10 μM concentration thereof. After treatment, the cells were incubated in a CO2 incubator for 24 hours. Through protein immunoblotting (Western Blot), the degrading capacity of each compound against p38 and p-p38 proteins in cells was confirmed. After cell culture was completed according to the experimental conditions, the cells were collected and centrifuged at 1,800 rpm for 3 minutes. The cells in the precipitate were lysed with RIPA (25 mM Tris-HCl pH 7.6, 150 mM NaCl, 1% NP-40, 1% sodium deoxycholate, 0.1% SDS, 1× Protease Inhibitor Cocktail), 5× sample buffer was added, and then heated at 100° C. for 15 minutes. The prepared sample was electrophoresed with sodium dodecyl sulfate poly acrylamide gel electrophoresis (SDS-PAGE), and then the proteins in the gel were transferred to a PVDF membrane using Trans-Blot Turbo. The membrane was treated with a 5% bovine serum albumin (BSA) solution and blocked at room temperature for 2 hours, and then p-p38, p38, and R-actin antibodies were diluted in the 5% BSA solution to react with the membrane at 4° C. overnight. After washed with PBST (phosphate-based saline containing 0.5% Tween20) 5 times, horse radish peroxidase (HRP)-conjugated secondary antibodies were diluted in PBST to react at room temperature for 2 hours, and then washed again with a PBST solution 5 times. After enzyme-substrate reaction was carried out using a HRP substrate, a signal was measured with chemi-doc equipment, and the densitometry of bands corresponding to the p-p38 and p38 proteins detected in the Preparation Example Compounds was quantitatively analyzed. The case when the degrading capacity of each p38 degrader was reduced by less than 40% is indicated as +, the case when the degrading capacity was reduced by 40% to 70% (exclusive of 70) is indicated as ++, the case when the degrading capacity was reduced by 70% or more is indicated as +++ in Tables 24 to 26 below. As shown in the following Tables, it was confirmed that the compounds of Preparation Examples I″′ to III″′ according to the present invention have excellent degrading capacity.

| Compound | p38 degrading capacity (%) |
| --- | --- |
| Cc1ccc(C(=O)NC2CC2)cc1-c1ccc(C(=O)c2ccc(OCCOC(=O)Nc3ccc(C#CCN)cc3)cc2)cc1.Cl [1-1″′, 2-(4-(5′-(cyclopropylcarbamoyl)-2′-methyl-[1,1′-biphenyl]-4-carbonyl)phenoxy)ethyl (4-(3-aminoprop-1-yn-1-yl)phenyl)carbamate hydrochloride] | +++ (the degrading capacity was reduced by 70% or more) |
| Cc1ccc(C(=O)NC2CC2)cc1-c1ccc(C(=O)c2ccc(OCCOC(=O)Nc3ccc(C#CC(N)CO)cc3)cc2)cc1.Cl (stereo not shown) [3-49″′, 2-(4-(5′-(cyclopropylcarbamoyl)-2′-methyl-[1,1′-biphenyl]-4-carbonyl)phenoxy)ethyl (4-(3-amino-4-hydroxybut-1-yn-1-yl)phenyl)carbamate hydrochloride] | +++ (the degrading capacity was reduced by 70% or more) |
| Cc1ccc(C(=O)NC2CC2)cc1-c1ccc(C(=O)c2ccc(OCCOC(=O)NCCCNC(=O)c3ccc(C#CCN)o3)cc2)cc1 [4-166″′, 2-(4-(5′-(cyclopropylcarbamoyl)-2′-methyl-[1,1′-biphenyl]-4-carbonyl)phenoxy)ethyl (3-(5-(3-aminoprop-1-yn-1-yl)furan-2-carboxamido)propyl)carbamate trifluoroacetic acid] | +++ (the degrading capacity was reduced by 70% or more) |
| COC(=O)c1ccc(NC(=O)CCCC(=O)OCCOc2ccc(C(=O)c3ccc(-c4cc(C(=O)NC5CC5)ccc4C)cc3)cc2)cc1C#CCN.Cl [5-106″′, methyl 2-(3-aminoprop-1-yn-1-yl)-4-(5-(2-(4-(5′-(cyclopropylcarbamoyl)-2′-methyl-[1,1′-biphenyl]-4-carbonyl)phenoxy)ethoxy)-5-oxopentanamido)benzoate hydrochloride] | +++ (the degrading capacity was reduced by 70% or more) |
| COC(=O)c1ccc(C#CCNC(=O)OCCOc2ccc(C(=O)c3ccc(-c4cc(C(=O)NC5CC5)ccc4C)cc3)cc2)cc1C#CCN.Cl [5-116″′, methyl 2-(3-aminoprop-1-yn-1-yl)-4-(3-(((2-(4-(5′-(cyclopropylcarbamoyl)-2′-methyl-[1,1′-biphenyl]-4-carbonyl)phenoxy)ethoxy)carbonyl)amino)prop-1-yn-1-yl)benzoate hydrochloride] | +++ (the degrading capacity was reduced by 70% or more) |
| COC(=O)c1ccc(C(=O)N2CCN(C(=O)OCCOc3ccc(C(=O)c4ccc(-c5cc(C(=O)NC6CC6)ccc5C)cc4)cc3)CC2)cc1C#CCN [5-140″′, 2-(4-(5′-(cyclopropylcarbamoyl)-2′-methyl-[1,1′-biphenyl]-4-carbonyl)phenoxy)ethyl 4-(3-(3-aminoprop-1-yn-1-yl)-4-(methoxycarbonyl)benzoyl)piperazine-1-carboxylate trifluoroacetic acid] | +++ (the degrading capacity was reduced by 70% or more) |
